Reference: paper PMC12268802, “The herbicidal natural product phosphonothrixin is an inhibitor of the riboflavin biosynthetic enzyme L‐3,4‐dihydroxy‐2‐butanone‐4‐phosphate synthase” (Pest Management Science, 2025)

Columns and labels:
[1] = tested on: Alopecurus myosuroides (ALOMY); assay: Herbicidal greenhouse screening, post-emergence; type: in vivo; settings: visual, 3 weeks after spraying
Protocol: (§1) Seeds of mono‐ and dicotyledonous weed plants were sown in plastic pots of 7 cm diameter filled with a clayey silt soil substrate. The plants were maintained for the preparatory phase of germination and initial growth in the greenhouse under optimum growth conditions. Phosphonothrixin (1) was prepared for application as an emulsion concentrate and diluted together with 0.2% agrotin (a polyfunctional non‐ionic additive) in water corresponding to a spray volume of approximately 600 L ha^−1. At a growth stage of 2 to 4 true leaves the test plants were sprayed and then placed in the greenhouse for 3 weeks under optimum growth conditions. Subsequently, the effect of phosphonothrixin (1) was assessed visually relative to the untreated controls resulting in herbicidal effects (%) ranging from 0% (no effect = untreated control) to 100% (complete control = died‐off ).

[2] = tested on: Amaranthus retroflexus (AMARE); assay: Herbicidal greenhouse screening, post-emergence; type: in vivo; settings: visual, 3 weeks after spraying
Protocol: as §1

[3] = tested on: Lolium multiflorum (LOLMU); assay: Herbicidal greenhouse screening, post-emergence; type: in vivo; settings: visual, 3 weeks after spraying
Protocol: as §1

[4] = tested on: Matricaria inodora (MATIN); assay: Herbicidal greenhouse screening, post-emergence; type: in vivo; settings: visual, 3 weeks after spraying
Protocol: as §1

[5] = tested on: Polygonum convolvulus (POLCO); assay: Herbicidal greenhouse screening, post-emergence; type: in vivo; settings: visual, 3 weeks after spraying
Protocol: as §1

Setaria viridis (SETVI) = assay: Herbicidal greenhouse screening, post-emergence; type: in vivo; settings: visual, 3 weeks after spraying
Protocol: as §1

Stellaria media (STEME) = assay: Herbicidal greenhouse screening, post-emergence; type: in vivo; settings: visual, 3 weeks after spraying
Protocol: as §1

[6] = tested on: Triticum aestivum (spring wheat, TRZAS); assay: Herbicidal greenhouse screening, post-emergence; type: in vivo; settings: visual, 3 weeks after spraying
Protocol: as §1

Veronica persica (VERPE) = assay: Herbicidal greenhouse screening, post-emergence; type: in vivo; settings: visual, 3 weeks after spraying
Protocol: as §1

Zea mays (ZEAMX) = assay: Herbicidal greenhouse screening, post-emergence; type: in vivo; settings: visual, 3 weeks after spraying
Protocol: as §1

AtDHBPS [7] = target: T1, AtDHBPS (Arabidopsis thaliana, UniProt P47924); assay: Thermal stability shift analysis; type: binding; settings: 6.5 μM AtDHBPS
T1 construct: made in house; host or cells: Escherichia coli BL21(DE3)
T1 sequence (P47924 with tags, fused parts or gaps): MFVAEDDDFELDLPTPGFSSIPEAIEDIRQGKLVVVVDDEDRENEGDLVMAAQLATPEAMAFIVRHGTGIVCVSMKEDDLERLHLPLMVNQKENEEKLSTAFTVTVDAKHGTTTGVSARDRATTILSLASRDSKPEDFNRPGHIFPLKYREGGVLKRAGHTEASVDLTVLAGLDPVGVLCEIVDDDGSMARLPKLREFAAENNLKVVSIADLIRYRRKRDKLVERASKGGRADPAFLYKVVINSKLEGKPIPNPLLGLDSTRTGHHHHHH
Protocol: AtDHBPS melting curves were determined in 96‐well microtiter plates in a Roche Light Cycler 480. The assay mixture contained 50 mM HEPES pH 7.5, 75 mM NaCl, 2.5 mM MgCl2, 7.5x SYPRO Orange and 6.5 μM AtDHBPS in a total volume of 20 μL. A linear temperature gradient from 25 to 85 °C with a ramping of 3.25 °C min^−1 was applied. Melting temperatures were determined from plots of the first derivative of the fluorescence intensity versus temperature.

AtDHBPS [8] = target: T1, AtDHBPS; assay: DHBPS activity assay; type: biochemical
Protocol: (§2) DHBPS activity assays were out carried in 96‐well microtiter plates using a modification of the procedure previously described.[18] The reaction mixture contained 100 mM MES (2‐morpholinoethanesulfonic acid) buffer pH 6.5, 20 mM MgCl2, 20 mM D‐ribose‐5‐phosphate (Sigma‐Aldrich R7750), 0.02% Tween‐20, 0.2 mg BSA, 0.5 μg of spinach phosphoriboisomerase (Sigma‐Aldrich P9752) and DHBPS enzyme in a final volume of 110 μL. Assays were initiated by adding enzyme and terminated after 120 min incubation at rt by the addition of 90 μL of a solution of 3.5% α‐naphthol and 0.2% creatine in 2 N NaOH. After an additional 45 min incubation at rt the absorbance was determined at 540 nm. The pI50‐value for inhibition by phosphonothrixin (1) was determined with the XLFit Excel add‐in version 4.3.1 curve fitting program of ID Business Solutions Limited. […] Reaction velocities were fitted to the Michaelis–Menten equation with the XLFit curve fitting program.

ZtDHBPS = ZtDHBPS (Zymoseptoria tritici, UniProt F9X7Z9); assay: DHBPS activity assay; type: biochemical
Protocol: as §2

Lemna gibba = Lemna gibba growth assay; type: in vivo; settings: 100 μM phosphonothrixin; 7 days
Protocol: Growth experiments were performed in sterile 6‐well cell culture plates and were initiated by transferring four Lemna gibba fronds per well to 5 mL of K‐medium[22] pH 4.8 containing 1% (w/v) sucrose and a selected concentration of phosphonothrixin (1) and riboflavin determined from previous experiments. The cell culture plates were incubated for 7 days in a growth cabinet at 22 °C and a continuous photon flux density of 75 μE/m^2s.

[9] = tested on: mono‐ and dicotyledonous weed plants; assay: Greenhouse test, pre-emergence; type: in vivo; settings: highest application rate tested; data not shown
[10] = tested on: mono‐ and dicotyledonous weed plants; assay: Greenhouse test, post-emergence, phenotype of affected plants; type: in vivo
Protocol: as §1

[11] = tested on: gramineous and broadleaf weeds; parameters: method as in PMID 7490218, PMID 7490219; settings: cited from earlier work

ZtDHBPS, sequence (F9X7Z9 1-226): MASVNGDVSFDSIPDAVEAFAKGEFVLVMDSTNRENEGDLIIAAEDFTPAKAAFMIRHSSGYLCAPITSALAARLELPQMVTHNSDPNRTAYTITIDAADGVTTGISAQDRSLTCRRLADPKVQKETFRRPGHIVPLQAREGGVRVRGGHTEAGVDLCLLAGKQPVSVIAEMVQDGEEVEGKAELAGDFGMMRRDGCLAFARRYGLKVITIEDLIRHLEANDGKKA

CC(=O)C(O)(CO)CP(=O)(O)O (centres unmarked) [phosphonothrixin]
herbicidal effect rating, post-emergence ([1]; 320 g/ha): 1 (‘1’ = 20–39% inhibition) | herbicidal effect rating, post-emergence ([1]; 1280 g/ha): 3 (‘3’ = 60–79% inhibition) | herbicidal effect rating, post-emergence ([1]; 5120 g/ha): 4 (‘4’ = 80–90% inhibition) | herbicidal effect rating, post-emergence ([2]; 80 g/ha): 2 (‘2’ = 40–59% inhibition) | herbicidal effect rating, post-emergence ([2]; 320 g/ha): 3 (‘3’ = 60–79% inhibition) | herbicidal effect rating, post-emergence ([2]; 1280 g/ha): 4 (‘4’ = 80–90% inhibition) | herbicidal effect rating, post-emergence ([2]; 5120 g/ha): 4 (‘4’ = 80–90% inhibition) | herbicidal effect rating, post-emergence ([3]; 80 g/ha): 1 (‘1’ = 20–39% inhibition) | herbicidal effect rating, post-emergence ([3]; 320 g/ha): 3 (‘3’ = 60–79% inhibition) | herbicidal effect rating, post-emergence ([3]; 1280 g/ha): 4 (‘4’ = 80–90% inhibition) | herbicidal effect rating, post-emergence ([3]; 5120 g/ha): 4 (‘4’ = 80–90% inhibition) | herbicidal effect rating, post-emergence ([4]; 80 g/ha): 2 (‘2’ = 40–59% inhibition) | herbicidal effect rating, post-emergence ([4]; 320 g/ha): 3 (‘3’ = 60–79% inhibition) | herbicidal effect rating, post-emergence ([4]; 1280 g/ha): 4 (‘4’ = 80–90% inhibition) | herbicidal effect rating, post-emergence ([4]; 5120 g/ha): 4 (‘4’ = 80–90% inhibition) | herbicidal effect rating, post-emergence ([5]; 80 g/ha): 1 (‘1’ = 20–39% inhibition) | herbicidal effect rating, post-emergence ([5]; 320 g/ha): 1 (‘1’ = 20–39% inhibition) | herbicidal effect rating, post-emergence ([5]; 1280 g/ha): 1 (‘1’ = 20–39% inhibition) | herbicidal effect rating, post-emergence ([5]; 5120 g/ha): 2 (‘2’ = 40–59% inhibition) | herbicidal effect rating, post-emergence (Setaria viridis (SETVI); 80 g/ha): 4 (‘4’ = 80–90% inhibition) | herbicidal effect rating, post-emergence (Setaria viridis (SETVI); 320 g/ha): 4 (‘4’ = 80–90% inhibition) | herbicidal effect rating, post-emergence (Setaria viridis (SETVI); 1280 g/ha): 4 (‘4’ = 80–90% inhibition) | herbicidal effect rating, post-emergence (Setaria viridis (SETVI); 5120 g/ha): 4 (‘4’ = 80–90% inhibition) | herbicidal effect rating, post-emergence (Stellaria media (STEME); 80 g/ha): 3 (‘3’ = 60–79% inhibition) | herbicidal effect rating, post-emergence (Stellaria media (STEME); 320 g/ha): 3 (‘3’ = 60–79% inhibition) | herbicidal effect rating, post-emergence (Stellaria media (STEME); 1280 g/ha): 3 (‘3’ = 60–79% inhibition) | herbicidal effect rating, post-emergence (Stellaria media (STEME); 5120 g/ha): 4 (‘4’ = 80–90% inhibition) | herbicidal effect rating, post-emergence ([6]; 320 g/ha): 1 (‘1’ = 20–39% inhibition) | herbicidal effect rating, post-emergence ([6]; 1280 g/ha): 4 (‘4’ = 80–90% inhibition) | herbicidal effect rating, post-emergence ([6]; 5120 g/ha): 4 (‘4’ = 80–90% inhibition) | herbicidal effect rating, post-emergence (Veronica persica (VERPE); 80 g/ha): 3 (‘3’ = 60–79% inhibition) | herbicidal effect rating, post-emergence (Veronica persica (VERPE); 320 g/ha): 3 (‘3’ = 60–79% inhibition) | herbicidal effect rating, post-emergence (Veronica persica (VERPE); 1280 g/ha): 4 (‘4’ = 80–90% inhibition) | herbicidal effect rating, post-emergence (Veronica persica (VERPE); 5120 g/ha): 4 (‘4’ = 80–90% inhibition) | herbicidal effect rating, post-emergence (Zea mays (ZEAMX); 320 g/ha): 2 (‘2’ = 40–59% inhibition) | herbicidal effect rating, post-emergence (Zea mays (ZEAMX); 1280 g/ha): 3 (‘3’ = 60–79% inhibition) | herbicidal effect rating, post-emergence (Zea mays (ZEAMX); 5120 g/ha): 4 (‘4’ = 80–90% inhibition) | ΔTm at 10 µM (AtDHBPS [7]; compound 10 μM, read-out: shift of the melting point (deltaTm) of AtDHBPS): 4 °C | deltaTm(max) (AtDHBPS [7]; from plot of deltaTm vs. concentration): 22.7 ± 0.6 °C | Kd (AtDHBPS [7]; from plot of deltaTm vs. concentration, read-out: Kd-value for binding to AtDHBPS): 31.1 ± 2.8 µM | IC50 (AtDHBPS [8]): 58 ± 11 µM | Ki (AtDHBPS [8]): 16.6 ± 5 µM | type of inhibition of AtDHBPS (AtDHBPS [8]; with respect to the substrate): competitive inhibitor | IC50 (ZtDHBPS): 19 µM | bleaching of Lemna gibba fronds (Lemna gibba): strong bleaching of the fronds | growth of Lemna gibba (Lemna gibba): significant growth inhibition | pre-emergence herbicidal activity [9]: failed to show any pre‐emergence activity | phenotype of affected plants [10]: bleaching phenotype | effect after foliar application [11]: chlorosis | effect on germination ([11]; gramineous and broadleaf weeds): significantly inhibited germination
